What was measured:
Type in all cases: cell-based
[1] = tested on: LXRα mRNA in 3T3-L1 adipocytes; experiment: Northern blot analysis of LXRα mRNA in 3T3-L1 adipocytes; details: for LXRα mRNA (Northern blot of total RNA): differentiating 3T3-L1 cells, 22-R 5 μM, Darglitazone 1 μM, alone or in combination, 24 hours, FIG. 2
Experimental: We performed Northern blot analysis on total RNA from 3T3-L1 adipocytes treated with increasing doses of a PPARγ agonist. Adipocytes treated over a 24 hrs period with […] of Darglitazone. 20 μg total RNA was subjected to Northern blotting and probed with a ^32P-labeled LXRα cDNA probe. The signal was obtained by scanning the autoradiogram and normalised for 18S RNA expression. […] These concentrations are in agreement with concentrations required for activation of PPARγ in reporter assays (Lehmann et al. 1995).
(§1) 3T3-L1 cells committed to adipocyte differentiation were treated with either Darglitazone, the LXRα agonist 22-R-hydroxy cholesterol, or both. 22-R-hydroxy cholesterol (22-R) is a naturally occurring agonist for LXRα (Janowski et al. 1996). […] Therefore, treatment of 3T3-L1 pre-adipocytes with either a PPARγ agonist or an LXRα agonist leads to fat accumulation and increased expression of LXRα.
(§2) The 3T3-L1 cell line (ATCC) was maintained in DMEM supplemented with 10% fetal calf serum, 2 mM L-glutamine and penicillin/streptomycin at 37° C. Cells were grown to confluence and exposed to adipogenic reagents for 3 days, followed by culturing for 3 more days in medium containing insulin only as described elsewhere (Lin and Lane, 1992). Insulin was used at a concentration of 1 μg/ml, dexamethasone at 1 μM and isobutylmethylxanthine at 0.5 mM.
(§3) Total RNA from differentiated 3T3-L1 adipocytes or adipose tissue were extracted by the Trizol (Life Technologies, Inc.) method as recommended by the manufacturer. Northern blot analysis of RNA was performed as described earlier (Sorensen et al., 1994). 20 μg of total RNA was analyzed for LXRα and ribosomal protein 18S mRNA.

[2] = tested on: LXRα mRNA in human adipocytes; experiment: Northern blot analysis of LXRα mRNA in human adipocytes; details: 1 μM Darglitazone, 5 μM 22-(R)-hydroxy cholesterol or both, 48 hrs, FIG. 3
Experimental: Human adipocytes were obtained from breast reduction surgery. Pieces of adipose tissue (5-600 mg) were prepared under sterile conditions and used for incubations in plastic tubes essentially as described (Ottosson et al., 1994). PolyA+ RNA was isolated and subjected to Northern blot analysis (FIG. 3).
as §3

3T3-L1 cells = experiment: Oil Red O staining of lipid droplet accumulation / adipocyte differentiation of 3T3-L1 cells; details: for lipid droplets (Oil Red-O staining): 3T3-L1 cells committed to adipocyte differentiation
Experimental: as §1, §2
Light microscopy and Oil Red O staining were used to monitor the characteristic cell rounding and lipid droplet accumulation in these cells during differentiation. Images were taken using a microscope (Leica DMIL) and a dual-colour charge coupled device camera (Leica MPS 60).

Compound | LXRα mRNA (Northern blot of total RNA) [1] | expression levels of LXRα mRNA (Northern blot of PolyA+ RNA) [2] | lipid droplets (Oil Red-O staining) (3T3-L1 cells) | adipocyte differentiation of 3T3-L1 pre-adipocytes (3T3-L1 cells; 3T3-L1 pre-adipocytes) | induction of LXRa mRNA ([1]; 3T3-L1 adipocytes, 24 hrs, 0.01, 0.1, and 1 mM, normalised for 18S RNA, FIG. 1)
CC(C)CC[C@@H](O)[C@@H](C)[C@H]1CC[C@H]2[C@@H]3CC=C4C[C@@H](O)CC[C@]4(C)[C@H]3CC[C@]12C [22-R-hydroxy cholesterol] | increase | increased expression levels | gradually larger lipid droplets | enhances adipocyte differentiation | –
Cc1oc(-c2ccccc2)nc1CCC(=O)c1ccc(CC2SC(=O)NC2=O)cc1 (centres unmarked) [Darglitazone] | increase | increased expression levels | gradually larger lipid droplets | – | approximately 5 fold

Source: patent publication US20080032961A1, “Therapy employing LXRalpha modolators” (priority 2001, published 2008)
